# Results as given in patent US20250275929A1, “INTRAOPERATIVE TOPICALLY-APPLIED NON-IMPLANTABLE RAPID RELEASE PATCH” (PRIVO TECHNOLOGIES, INC., priority 2017, published 2025).
# Assay: HPLC chromatograms of agent from patch and from gamma sterilized patch
# Type: physicochemical
# Description: FIGS. 9A, 9B, and 9C are graphs showing that agent(s) included within a patch, according to embodiments of the present invention, are not modified when incorporated into the patch or when the patch is sterilized. FIG. 9A is a graph showing a high-performance liquid chromatography (H PLC) chromatogram of a cisplatin standard. FIG. 9B is a graph showing an HPLC chromatogram of a patch, which illustrates that the cisplatin was not modified.
# The patch is sterilized prior to application to a surgical cavity, for example after the patch is manufactured and before packaging. In some embodiments, gamma sterilization is employed to sterilize the patch. FIGS. 9A-9C show HPLC chromatograms at various stages of product synthesis. The HPLC apparatus was an Agilent 1100 Series HPLC using a water/methanol/sodium lauryl sulfate solvent mixture adjusted to pH 2.5 with trifluoromethanesulfonic acid. FIG. 9A is an HPLC chromatogram of a cisplatin standard. FIG. 9B is an HPLC chromatogram of a cisplatin sample taken from a patch that was dissolved in a solution, which illustrates that the cisplatin was not modified while in the patch. […] Similar experiments were conducted using oxaliplatin and 5-fluorouracil. This experiment proves that the patches are able to be manufactured and sterilized while maintaining the integrity of the agent(s) included within.
smiles,measurement,setting,value
N.N.[Cl][Pt][Cl] [cisplatin],integrity of agent after gamma ray sterilization of patch (HPLC),gamma ray sterilization for 25 minutes,not modified
same,integrity of agent while in the patch (HPLC),sample taken from a patch dissolved in a solution,not modified
